Results taken from ChEMBL document CHEMBL5723585, “Data for DCP probe JNJ-54082730” (2024).

Tests used:
[1] = target: cGMP-dependent 3',5'-cyclic phosphodiesterase (Homo sapiens, UniProt O00408); assay: Scintillation proximity assay (PDE2A) ( Mean (95% Confidence Interval) = 0.8 -1 nM; Ki = 0.7 nM)
[2] = target: cGMP-dependent 3',5'-cyclic phosphodiesterase (Rattus norvegicus) (UniProt Q01062); assay: Target occupancy in striatum ( p.o.dose, 1 h); assay type: organism-based
[3] = target: cAMP and cAMP-inhibited cGMP 3',5'-cyclic phosphodiesterase 10A (Homo sapiens, UniProt Q9Y233); assay: Scintillation proximity assay (PDE10A)
[4] = target: Phosphodiesterase 3 (Homo sapiens, UniProt Q14432+Q13370); assay: Scintillation proximity assay (PDE3); assay type: protein assay

Sequence of cAMP and cAMP-inhibited cGMP 3',5'-cyclic phosphodiesterase 10A (Q9Y233 whole entry): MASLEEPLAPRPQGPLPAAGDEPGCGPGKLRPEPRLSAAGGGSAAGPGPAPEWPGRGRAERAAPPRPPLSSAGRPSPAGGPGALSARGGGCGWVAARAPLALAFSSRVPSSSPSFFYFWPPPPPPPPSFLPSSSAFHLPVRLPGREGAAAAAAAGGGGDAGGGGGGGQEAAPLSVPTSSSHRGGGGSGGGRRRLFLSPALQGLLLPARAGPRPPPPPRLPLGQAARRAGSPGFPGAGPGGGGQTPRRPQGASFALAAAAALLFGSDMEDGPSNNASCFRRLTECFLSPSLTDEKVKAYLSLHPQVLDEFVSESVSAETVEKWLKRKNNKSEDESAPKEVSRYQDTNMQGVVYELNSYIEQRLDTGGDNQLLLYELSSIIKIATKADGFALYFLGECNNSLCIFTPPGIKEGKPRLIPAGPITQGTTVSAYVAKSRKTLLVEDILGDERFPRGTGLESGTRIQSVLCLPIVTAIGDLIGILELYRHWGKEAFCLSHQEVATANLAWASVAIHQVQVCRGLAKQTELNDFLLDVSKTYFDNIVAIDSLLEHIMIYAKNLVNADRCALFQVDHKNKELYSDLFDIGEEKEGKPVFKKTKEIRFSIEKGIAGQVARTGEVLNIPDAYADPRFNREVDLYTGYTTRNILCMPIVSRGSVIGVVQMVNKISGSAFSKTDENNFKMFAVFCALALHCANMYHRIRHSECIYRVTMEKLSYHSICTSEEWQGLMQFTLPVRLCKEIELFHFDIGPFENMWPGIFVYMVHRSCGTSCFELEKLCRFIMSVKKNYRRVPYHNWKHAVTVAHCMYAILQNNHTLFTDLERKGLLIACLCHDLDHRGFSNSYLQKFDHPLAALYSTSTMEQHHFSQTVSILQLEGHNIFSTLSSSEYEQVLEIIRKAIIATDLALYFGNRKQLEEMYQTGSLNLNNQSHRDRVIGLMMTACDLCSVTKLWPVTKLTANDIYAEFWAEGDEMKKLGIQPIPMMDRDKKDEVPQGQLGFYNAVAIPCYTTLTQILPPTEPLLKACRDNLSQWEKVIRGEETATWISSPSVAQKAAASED
Sequence of cGMP-dependent 3',5'-cyclic phosphodiesterase (Rattus norvegicus) (Q01062 whole entry): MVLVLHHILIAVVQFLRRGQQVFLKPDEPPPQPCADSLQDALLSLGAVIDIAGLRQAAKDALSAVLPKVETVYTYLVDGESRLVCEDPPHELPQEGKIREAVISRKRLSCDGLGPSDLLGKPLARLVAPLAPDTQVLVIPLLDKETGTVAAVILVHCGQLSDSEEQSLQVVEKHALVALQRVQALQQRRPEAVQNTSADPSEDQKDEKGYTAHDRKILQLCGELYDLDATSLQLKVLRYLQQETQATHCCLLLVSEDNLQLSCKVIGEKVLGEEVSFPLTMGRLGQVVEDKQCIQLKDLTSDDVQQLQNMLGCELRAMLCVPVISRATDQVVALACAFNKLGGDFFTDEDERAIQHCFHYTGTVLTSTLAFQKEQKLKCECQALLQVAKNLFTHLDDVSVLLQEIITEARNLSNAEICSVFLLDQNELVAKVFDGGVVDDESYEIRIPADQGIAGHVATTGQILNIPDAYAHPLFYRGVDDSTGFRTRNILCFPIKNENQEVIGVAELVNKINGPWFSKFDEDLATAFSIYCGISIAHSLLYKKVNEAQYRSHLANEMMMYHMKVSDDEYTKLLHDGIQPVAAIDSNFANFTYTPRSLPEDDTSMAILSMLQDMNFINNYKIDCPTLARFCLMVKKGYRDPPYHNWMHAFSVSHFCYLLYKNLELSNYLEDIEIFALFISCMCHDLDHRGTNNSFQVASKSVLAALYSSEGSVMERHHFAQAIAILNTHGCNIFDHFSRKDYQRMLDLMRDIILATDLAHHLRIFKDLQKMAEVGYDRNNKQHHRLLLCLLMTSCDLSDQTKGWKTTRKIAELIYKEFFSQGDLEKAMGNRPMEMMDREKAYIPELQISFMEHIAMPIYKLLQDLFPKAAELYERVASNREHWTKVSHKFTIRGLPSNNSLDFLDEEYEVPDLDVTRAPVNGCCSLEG
Sequence of cGMP-dependent 3',5'-cyclic phosphodiesterase (O00408 whole entry): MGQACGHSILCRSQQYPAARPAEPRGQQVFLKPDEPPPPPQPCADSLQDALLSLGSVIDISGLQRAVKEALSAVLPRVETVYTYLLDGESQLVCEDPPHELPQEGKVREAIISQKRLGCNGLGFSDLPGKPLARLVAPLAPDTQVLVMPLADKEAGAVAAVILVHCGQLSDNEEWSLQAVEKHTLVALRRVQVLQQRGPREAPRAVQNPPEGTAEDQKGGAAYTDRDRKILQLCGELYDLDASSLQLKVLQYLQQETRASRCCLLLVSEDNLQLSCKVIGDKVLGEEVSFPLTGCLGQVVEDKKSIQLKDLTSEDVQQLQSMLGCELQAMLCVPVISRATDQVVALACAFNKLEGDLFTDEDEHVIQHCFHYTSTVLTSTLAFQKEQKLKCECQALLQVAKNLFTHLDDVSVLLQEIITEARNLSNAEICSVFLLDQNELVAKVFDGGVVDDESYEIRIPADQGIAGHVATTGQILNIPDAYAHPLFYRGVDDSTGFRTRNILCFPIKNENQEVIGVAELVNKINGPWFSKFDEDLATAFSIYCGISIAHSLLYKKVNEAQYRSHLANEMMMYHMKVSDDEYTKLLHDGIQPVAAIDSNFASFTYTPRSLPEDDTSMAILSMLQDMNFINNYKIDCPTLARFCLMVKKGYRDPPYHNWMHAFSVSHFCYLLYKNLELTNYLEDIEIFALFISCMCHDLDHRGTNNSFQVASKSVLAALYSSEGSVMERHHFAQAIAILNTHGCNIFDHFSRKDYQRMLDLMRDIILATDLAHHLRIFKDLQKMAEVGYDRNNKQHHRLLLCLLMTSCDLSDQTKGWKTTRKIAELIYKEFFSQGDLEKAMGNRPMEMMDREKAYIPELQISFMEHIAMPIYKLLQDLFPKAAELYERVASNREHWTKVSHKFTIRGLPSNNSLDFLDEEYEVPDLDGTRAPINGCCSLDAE

IC50 [1]: 0.097 µM (not active)
ED50 [2]: > 80 mg/kg
IC50 [3]: > 10 µM (not active)
IC50 [4]: > 10 µM
SMILES: Cc1cc(C(=O)N2CC[C@H](C)[C@@H](c3cc(C(F)F)nc4ncnn34)C2)cc(C)n1
